The supplement of paper PMC4862054

Legend:
Settings in all cases: incubation time: 72 h
MDA-MB-231 [1] = assay: drug sensitivity score (DSS), CellTox Green (DSS (AUC-based score)); higher = stronger drug effect (viability inhibition or cytotoxicity); extreme values may be limits of the assay
How it was run: (§1)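 Using 20 µl of cell suspension per well, breast cancer cell lines were seeded into 384-well plates pre-loaded with compound at 5 concentrations in 10-fold steps across a compound-specific 10,000-fold range. Incubation lasted 72 h, after which CellTox Green fluorescence at 485/520 nm and then CellTiter-Glo luminescence, following 10 min at room temperature, were recorded. Each plate was normalised to 0.1 % DMSO and a positive kill control before the drug sensitivity score was derived from the area under the fitted dose-response curve.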

MFM-223 = assay: as above
How it was run: as §1

CAL-85-1 [2] = assay: as above
How it was run: as §1

CAL-51 = assay: as above
How it was run: as §1

CAL-120 [3] = assay: as above
How it was run: as §1

MDA-MB-453 [4] = assay: as above
How it was run: as §1

HDQ-P1 [5] = assay: as above
How it was run: as §1

CAL-148 = assay: as above
How it was run: as §1

MCF-10A = assay: as above
How it was run: as §1

HCC1143 [6] = assay: as above
How it was run: as §1

MDA-MB-468 [7] = assay: as above
How it was run: as §1

Hs578T [8] = assay: as above
How it was run: as §1

HCC1937 = assay: normalised viability (% of control), CellTiter-Blue; higher = more viable cells (100 = DMSO, 0 = benzethonium chloride kill control)
Description: (§2)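 DSRT, CellTiter-Blue viability, 72 h incubation. Signal is normalised to DMSO and benzethonium chloride controls. Value is the normalised response at dose 1.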

MDA-MB-231 [9] = assay: as above
Description: as §2

MDA-MB-436 = assay: as above
Description: as §2

DU-4475 = assay: as above
Description: as §2

CAL-85-1 [10] = assay: as above
Description: as §2

CAL-120 [11] = assay: as above
Description: as §2

BT-549 = assay: as above
Description: as §2

MDA-MB-453 [12] = assay: as above
Description: as §2

BT-474 = assay: as above
Description: as §2

HDQ-P1 [13] = assay: as above
Description: as §2

HCC1599 = assay: as above
Description: as §2

HCC1143 [14] = assay: as above
Description: as §2

MDA-MB-468 [15] = assay: as above
Description: as §2

Hs578T [16] = assay: as above
Description: as §2

SK-BR-3 = assay: as above
Description: as §2

Structure (SMILES)	drug sensitivity score (MDA-MB-231 [1])	drug sensitivity score (MFM-223)	drug sensitivity score (CAL-85-1 [2])	drug sensitivity score (CAL-51)	drug sensitivity score (CAL-120 [3])	drug sensitivity score (MDA-MB-453 [4])	drug sensitivity score (HDQ-P1 [5])	drug sensitivity score (CAL-148)	drug sensitivity score (MCF-10A)	drug sensitivity score (HCC1143 [6])	drug sensitivity score (MDA-MB-468 [7])	drug sensitivity score (Hs578T [8])	normalised viability (HCC1937; 1 nM) [%]	normalised viability (MDA-MB-231 [9]; 1 nM) [%]	normalised viability (MDA-MB-436; 1 nM) [%]	normalised viability (DU-4475; 1 nM) [%]	normalised viability (CAL-85-1 [10]; 1 nM) [%]	normalised viability (CAL-120 [11]; 1 nM) [%]	normalised viability (BT-549; 1 nM) [%]	normalised viability (MDA-MB-453 [12]; 1 nM) [%]	further results
Nc1ncnc2c1c(COc1cccc(Cl)c1)nn2C1CCOCC1	0	0	0	0	0	0	0	0	0	0	0	0.27	–	–	–	–	–	–	–	–	–
COc1ccc(-c2ccc3c(N4CCOC[C@@H]4C)nc(N4CCOC[C@@H]4C)nc3n2)cc1CO [AZD8055]	0	0	0.628	7.39	0	0	0	14.2	0	8.37	2.01	0	102	98.3	113	103	96.2	93.2	106	89.3	normalised viability (BT-474; 1 nM): 103%; normalised viability (HDQ-P1 [13]; 1 nM): 104%; normalised viability (HCC1599; 1 nM): 97.8%; normalised viability (HCC1143 [14]; 1 nM): 98.2%; normalised viability (MDA-MB-468 [15]; 1 nM): 109%; normalised viability (Hs578T [16]; 1 nM): 105%; normalised viability (SK-BR-3; 1 nM): 103%
C[C@]12CC[C@H](O)CC1=CC[C@@H]1[C@@H]2CC[C@]2(C)C(c3cccnc3)=CC[C@@H]12 [Abiraterone]	0	0	0	0	0	0	0	0	0	0	0	0	–	–	–	–	–	–	–	–	normalised viability (HCC1937; 0.5 nM): 99.8%; normalised viability (MDA-MB-231 [9]; 0.5 nM): 96%; normalised viability (MDA-MB-436; 0.5 nM): 114%; normalised viability (DU-4475; 0.5 nM): 99.4%; normalised viability (CAL-85-1 [10]; 0.5 nM): 82.8%; normalised viability (CAL-120 [11]; 0.5 nM): 78.9%; normalised viability (BT-549; 0.5 nM): 111%; normalised viability (MDA-MB-453 [12]; 0.5 nM): 108%; normalised viability (BT-474; 0.5 nM): 86.1%; normalised viability (HDQ-P1 [13]; 0.5 nM): 109%; normalised viability (HCC1599; 0.5 nM): 102%; normalised viability (HCC1143 [14]; 0.5 nM): 86.6%; normalised viability (MDA-MB-468 [15]; 0.5 nM): 102%; normalised viability (Hs578T [16]; 0.5 nM): 95.3%; normalised viability (SK-BR-3; 0.5 nM): 96.1%
CN(C)CCN1C(=O)c2cccc3cc(N)cc(c23)C1=O [Amonafide]	0	0	0	2.42	0	0	0	2.89	0	0	0	0	108	93.1	102	99.6	90	78.7	94.4	87.3	normalised viability (BT-474; 1 nM): 103%; normalised viability (HDQ-P1 [13]; 1 nM): 105%; normalised viability (HCC1599; 1 nM): 88.2%; normalised viability (HCC1143 [14]; 1 nM): 83.7%; normalised viability (MDA-MB-468 [15]; 1 nM): 110%; normalised viability (Hs578T [16]; 1 nM): 121%; normalised viability (SK-BR-3; 1 nM): 101%
CC(C)(C#N)c1cc(Cn2cncn2)cc(C(C)(C)C#N)c1 [Anastrozole]	0	0	0	0	0	0.209	0	0	0	–	0	–	94.6	91.7	99	94	94.1	88.8	122	98.4	normalised viability (BT-474; 1 nM): 73.5%; normalised viability (HDQ-P1 [13]; 1 nM): 101%; normalised viability (HCC1599; 1 nM): 107%; normalised viability (HCC1143 [14]; 1 nM): 83.4%; normalised viability (MDA-MB-468 [15]; 1 nM): 97.9%; normalised viability (Hs578T [16]; 1 nM): 97.2%; normalised viability (SK-BR-3; 1 nM): 97.7%
CC(C)c1c(C(=O)Nc2ccccc2)c(-c2ccccc2)c(-c2ccc(F)cc2)n1CC[C@@H](O)C[C@@H](O)CC(=O)O [Atorvastatin]	13.1	0	0	13.9	1.49	0.0639	0	0	8.07	0	0	4.71	–	–	–	–	–	–	–	–	–
O=C(O)CCCc1ccc(N(CCCl)CCCl)cc1 [Chlorambucil]	0	0	0	0	0	0	0	0	0	0	0	0	97.6	106	105	102	97.4	96.6	96.7	109	normalised viability (BT-474; 1 nM): 89.7%; normalised viability (HDQ-P1 [13]; 1 nM): 111%; normalised viability (HCC1599; 1 nM): 117%; normalised viability (HCC1143 [14]; 1 nM): 105%; normalised viability (MDA-MB-468 [15]; 1 nM): 95.2%; normalised viability (Hs578T [16]; 1 nM): 99.4%; normalised viability (SK-BR-3; 1 nM): 101%
